{
  "source": "patent US7608625B2",
  "about": "“Method for treating bruxism and bruxism-related diseases” (Eisai R & D Management Co., Ltd., priority 2003, dated 2009)",
  "key": {"[1]": {"system": "bruxism patient", "assay": "Temporal muscle activity during sleep in bruxism patients, placebo or proton pump inhibitor (Experiment 2, double-blind)", "format": "in vivo, human", "conditions": "10 mg", "method": "A catheter with a pH electrode was inserted into the test subject's esophagus 5 cm above the upper portion of the lower esophageal sphincter and pH was measured while the subject was asleep, while a disposable (bipolar) electrode was affixed to the skin at the front of the temporal muscle on one side. An amount of muscle activity during sleep was measured from 2.5 hours after falling asleep for a 40-minute period. At the same time, video and sound recordings were made that confirmed bruxism during sleep. […] In this Figure, when stable pH levels in the esophagus declined sharply, this was defined as an “decreased esophageal pH episode”. Measurement of temporal muscle activity during sleep in the bruxsim patient medicated with placebo or the proton pump inhibitor In a double-blind trial, test subjects were assigned to either medication with placebo or the proton pump inhibitor [sodium salt of rabeprazole (10 mg; brand name: […] (registered trademark), Eisai Co., Ltd.)] and, according to the method used in experiment 1, the amount of muscle activity during sleep in the front of the temporal muscle on one side was measured for a 4-hour period between 1 and 5 hours after falling asleep. Video and sound recordings were made at the same time that confirmed bruxism during sleep. […] A paired t test was used to test for significance, with P<0.05 defined as indicating a statistically significant difference."}, "[2]": {"system": "bruxism patient", "assay": "Frequency of bruxism episodes during sleep in bruxism patients, placebo, PPI, H2RA or the combination (Experiment 3, double-blind)", "format": "in vivo, human", "conditions": "FIG. 3; bruxism patients n=9; 10 mg of each drug; 4-hour period between 1 and 5 hours after falling asleep; vs placebo; paired t test, P<0.05 significant", "method": "A catheter with a pH electrode was inserted into the test subject's esophagus 5 cm above the upper portion of the lower esophageal sphincter and pH was measured while the subject was asleep, while a disposable (bipolar) electrode was affixed to the skin at the front of the temporal muscle on one side. An amount of muscle activity during sleep was measured from 2.5 hours after falling asleep for a 40-minute period. At the same time, video and sound recordings were made that confirmed bruxism during sleep. […] In this Figure, when stable pH levels in the esophagus declined sharply, this was defined as an “decreased esophageal pH episode”. […] According to the methods used in experiment 1, the amount of muscle activity during sleep in the front of the temporal muscle on one side was measured for a 4-hour period between 1 and 5 hours after falling asleep. […]"}},
  "note": "Counter-ions that a name gives are not always drawn.",
  "data": [
    {"smiles": "COCCCOc1ccnc(C[S+]([O-])c2nc3ccccc3[nH]2)c1C", "note": "(stereo not shown) [proton pump inhibitor, sodium salt of rabeprazole]", "values": [
      {"measurement": "frequency of jaw motion accompanying rhythmical temporal muscle activity (bruxism episode)", "setting": "[1]; FIG. 2(A), one bruxism patient, 4-hour period between 1 and 5 hours after falling asleep, compared to placebo", "value": "substantial decline"},
      {"measurement": "frequency of bruxism episodes per hour of sleep", "setting": "[1]; FIG. 2(B), bruxism patients n=8, vs placebo, paired t test, ****P<0.0001", "value": "significantly reduces"},
      {"measurement": "duration of bruxism episodes per hour of sleep", "setting": "[1]; FIG. 2(B), bruxism patients n=8, vs placebo, paired t test, ***P<0.001", "value": "significantly reduces"},
      {"measurement": "frequency of bruxism episodes per hour of sleep", "setting": "[2]", "value": "significant reduction"}
    ]}
  ]
}
